Assay results taken from US20230165851A1, “6'-METHOXYCINCHONAN-9-OLS FOR THE TREATMENT OF CORONAVIRAL INFECTIONS” (Immunologik GmbH, priority 2020, published 2023).
Where a name gives a salt, the structure may show the parent alone. Read-outs that look alike come from different tables or passages of the source.

Legend:
SARS-CoV-2 [1] = assay type: cell-based; conditions: infected Vero-B4 cells, 3 dpi; for inhibition of SARS-CoV-2 protein generation compared with same/respective concentration of chloroquine or hydroxychloroquine (densitometry): comparators at 10 μM
SARS-CoV-2 [2] = assay type: cell-based; conditions: infected Vero-B4 cells, 3 dpi
Vero-B4 cells = experiment: WST-1 cell viability (cytotoxicity) assay in non-infected Vero-B4 cells; conditions: 3 days; for toxic effect (WST assay): antivirally effective concentrations
Protocol: Toxicity was assessed with a WST assay. Herein viable cells with an intact mitochondrial succinate-tetrazolium dehydrogenase system effect an enzymatic conversion of the feebly red tetrazolium salt WST-1 (4-[3-(4-iodophenyl)-2-(4-nitrophenyl)-2H-5-tetrazolio]-1,3 benzene disulfonate) into dark red formazan. This color change can be measured photometrically in a spectrophotometer. Thus, the WST assay is a very sensitive method for measuring the toxicity of substances on the cell metabolism.
In FIG. 4 the percentage of viable cells is depicted in comparison to untreated cells. The value for untreated cells was set to 100%. 1 μM staurosporine (an indolocarbazole compound from Streptomyces staurosporeus, an apoptosis inducer) was used as positive control.
In FIG. 8 the percentage of viable cells is depicted in comparison to untreated cells wherein the value for untreated cells was set to 100%. Again 1 μM staurosporine was used as positive control.

[3] = quinine sulfate series up to 100 μM

SMILES | block of virus replication (Western blot) (SARS-CoV-2 [1]; 20 μM) | inhibition of SARS-CoV-2 replication (Western blot) (SARS-CoV-2 [1]; 2.5, 5, 10 and 20 μM) | generation of SARS-CoV-2 proteins (densitometric evaluation of nucleoprotein in virus fraction) (SARS-CoV-2 [1]; 2.5 to 20 μM) | inhibition of SARS-CoV-2 protein generation compared with same/respective concentration of chloroquine or hydroxychloroquine (densitometry) (SARS-CoV-2 [1]) | reduction compared with 10 μM chloroquine or 10 μM hydroxychloroquine (Western blot) (SARS-CoV-2 [1]; quinidine sulfate series up to 20 μM) | reduction of SARS-CoV-2 RNA copies (qRT-PCR) (SARS-CoV-2 [2]; 2.5 μM, 5 μM, 10 μM and 20 μM) | reduction of SARS-CoV-2 RNA copies (qRT-PCR) (SARS-CoV-2 [2]; 10 μM) | reduction compared with 10 μM chloroquine or 10 μM hydroxychloroquine (qRT-PCR) (SARS-CoV-2 [2]; 20 μM) | reduction of SARS-CoV-2 RNA copies (qRT-PCR) (SARS-CoV-2 [2]; 20 μM) | toxic effect (WST assay) (Vero-B4 cells) | concentration up to which no toxic effect was detectable (WST assay) (Vero-B4 cells; tested 2.5 to 80 μM) | generation of SARS-CoV-2 proteins (densitometric evaluation of nucleoprotein in virus fraction) (SARS-CoV-2 [1]; 100 nM to 100 μM) | inhibition of SARS-CoV-2 replication (Western blot) (SARS-CoV-2 [1]; 100 nM, 1 μM, 10 μM and 100 μM) | block of virus replication (Western blot) (SARS-CoV-2 [1]; 100 μM) | reduction compared with 10 μM chloroquine or 10 μM hydroxychloroquine (Western blot) (SARS-CoV-2 [1]; [3]) | reduction in the amount of SARS-CoV-2 RNA copies (qRT-PCR) (SARS-CoV-2 [2]; 100 nM, 1 μM, 10 μM and 100 μM) | block of virus spread (qRT-PCR) (SARS-CoV-2 [2]; 100 μM) | reduction compared with 10 μM chloroquine or 10 μM hydroxychloroquine (qRT-PCR) (SARS-CoV-2 [2]; [3])
C=C[C@H]1C[N@@]2CC[C@H]1C[C@@H]2[C@@H](O)c1ccnc2ccc(OC)cc12 [quinidine sulfate] | nearly complete block of virus replication | dose-dependent inhibition | inhibited in a dose-dependent manner | higher percentage | clearly higher | dose-dependent reduction | approximately 82% | significant better reduction | approximately 97% | did not display any significant toxic effect | Up to 80 μM | – | – | – | – | – | – | –
C=C[C@H]1C[N@@]2CC[C@H]1C[C@H]2[C@H](O)c1ccnc2ccc(OC)cc12 [quinine sulfate] | – | – | – | higher percentage | – | – | approximately 85% | – | – | did not display any significant toxic effect | – | inhibited in a dose-dependent manner | dose-dependent inhibition | complete block of virus replication | significantly higher | dose-dependent reduction | complete block of virus spread | significantly higher
